Assay results reported in publication PMC3444172 (The Journal of organic chemistry, 2012).
Read-outs that look alike come from different tables or passages of the source.

Experiments:
[1] = test system: B. subtilis lumazine synthase (recombinant β60 capsid); conditions: previously reported compounds; cited from earlier work
[2] = molecular target: T1, M. tuberculosis lumazine synthase (recombinant homopentameric) (Mycobacterium tuberculosis, UniProt P9WHE9); conditions: previously reported compounds, cited from earlier work
T1 sequence (P9WHE9 whole entry): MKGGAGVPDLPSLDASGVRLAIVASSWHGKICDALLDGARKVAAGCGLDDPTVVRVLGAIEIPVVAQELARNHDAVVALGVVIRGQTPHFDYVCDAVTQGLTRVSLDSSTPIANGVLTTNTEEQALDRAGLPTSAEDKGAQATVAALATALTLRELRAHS

[3] = molecular target: baker's yeast riboflavin synthase; conditions: cited from earlier work
[4] = molecular target: Ashbya gossypii riboflavin synthase; conditions: cited from earlier work
[5] = molecular target: T2, E. coli riboflavin synthase (recombinant) (Escherichia coli, UniProt P0AFU8); conditions: previously reported compounds, cited from earlier work
T2 sequence (P0AFU8 whole entry): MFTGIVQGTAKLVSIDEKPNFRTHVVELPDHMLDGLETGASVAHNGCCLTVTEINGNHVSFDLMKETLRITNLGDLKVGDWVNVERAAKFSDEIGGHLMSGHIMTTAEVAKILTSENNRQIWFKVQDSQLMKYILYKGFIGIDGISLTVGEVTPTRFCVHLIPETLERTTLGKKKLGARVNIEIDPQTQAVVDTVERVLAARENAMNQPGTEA

[6] = molecular target: T1, M. tuberculosis lumazine synthase (recombinant homopentameric); assay type: biochemical
[7] = molecular target: T3, S. pombe lumazine synthase (recombinant homopentameric) (Schizosaccharomyces pombe, UniProt Q9UUB1); test: Kinetic assay of lumazine synthase inhibitors, S. pombe enzyme; assay type: biochemical
T3 sequence (Q9UUB1 1-159): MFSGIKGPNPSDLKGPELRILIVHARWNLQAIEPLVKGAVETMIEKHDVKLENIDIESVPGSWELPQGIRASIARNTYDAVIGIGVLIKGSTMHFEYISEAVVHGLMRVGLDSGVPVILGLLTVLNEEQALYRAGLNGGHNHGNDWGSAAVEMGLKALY

[8] = molecular target: T2, E. coli riboflavin synthase (recombinant); test: Kinetic assay of riboflavin synthase inhibitors, E. coli enzyme; assay type: biochemical
[9] = molecular target: M. tuberculosis riboflavin synthase (recombinant) (Mycobacterium tuberculosis, UniProt P9WK35); test: Kinetic assay of riboflavin synthase inhibitors, M. tuberculosis enzyme; assay type: biochemical
Chain of M. tuberculosis riboflavin synthase (recombinant) (P9WK35 whole entry): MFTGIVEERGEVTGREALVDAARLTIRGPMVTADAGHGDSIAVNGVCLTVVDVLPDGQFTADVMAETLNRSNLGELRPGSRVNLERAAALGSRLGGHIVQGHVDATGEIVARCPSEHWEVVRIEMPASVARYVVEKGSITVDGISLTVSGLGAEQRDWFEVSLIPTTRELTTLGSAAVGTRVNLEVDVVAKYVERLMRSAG

[10] = substrate 2 constant, substrate 1 varied, Tris·HCl pH 7.0
[11] = substrate 3 varied, Tris·HCl pH 7.0

Compound: O=c1[nH]c(=O)c2[nH]c(=O)c(=O)n(C[C@H](O)[C@H](O)[C@H](O)CO)c2[nH]1 [Compound 81, 6,7-dihydro-6,7-dioxo-8-ribityllumazine]
- Mechanism of inhibition [1]: Competitive
- Kcat (rate constant ES → E + P) ([2]; Tris·HCl pH 7.0): 1.1 ± 0.1 m^−1
- Mechanism of inhibition [2]: Competitive
- Ki [3]: 25 nM
- Ki [4]: 9 nM
- Kcat (rate constant ES → E + P) ([5]; Tris·HCl pH 7.0): 15 ± 0 m^−1
- Mechanism of inhibition [5]: Competitive

Compound: Nc1c(OC[C@@H](O)[C@H](O)[C@@H](O)CO)[nH]c(=O)[nH]c1=O [Compound 29, 5-Amino-6-((2R,3R,4S)-2,3,4,5-tetrahydroxypentyloxy)pyrimidine-2,4(1H,3H)-dione]
- Mechanism of inhibition [6]: Uncompetitive
- Kcat (rate constant ES → E + P) ([6]; pH 7): 0.18 ± 0.01 m^−1
- Kis (ES + I ⇌ ESI) [6, 10]: >1000 µM
- Ks (substrate dissociation constant, E + S ⇌ ES) [6, 10]: 27 ± 2 µM
- Mechanism of inhibition [7]: Partial
- Kcat (rate constant ES → E + P) [7, 10]: 1.3 ± 0.0 m^−1
- Kis (ES + I ⇌ ESI) [7, 10]: 43 ± 8 µM
- Ks (substrate dissociation constant, E + S ⇌ ES) [7, 10]: 1.2 ± 0.1 µM
- Mechanism of inhibition [8]: Uncompetitive
- Kcat (rate constant ES → E + P) [8, 11]: 3.2 ± 0.1 m^−1
- Kis (ES + I ⇌ ESI) [8, 11]: >1000 µM
- Ks (substrate dissociation constant, E + S ⇌ ES) [8, 11]: 2.5 ± 0.1 µM
- Mechanism of inhibition [9]: Uncompetitive
- Kcat (rate constant ES → E + P) [9, 11]: 0.25 ± 0.01 m^−1
- Kis (ES + I ⇌ ESI) [9, 11]: 577 ± 121 µM
- Ks (substrate dissociation constant, E + S ⇌ ES) [9, 11]: 5.6 ± 0.5 µM
